Reference: patent US11931424B2, “Combination MCL-1 inhibitors with anti-body drug conjugates” (Gilead Sciences, Inc., priority 2021, dated 2024)

System: panel of breast cancer cell lines
Assay: Compound A with targeted agents and chemotherapies, 72-hour in vitro proliferation assays
Type: cell-based
Settings: 72-hour proliferation
[1] = AU565 cell line, compound A × partner
[2] = BT-20 cell line, compound A × partner
[3] = BT-474 cell line, compound A × partner
[4] = BT-549 cell line, compound A × partner
[5] = CAL-51 cell line, compound A × partner
[6] = CAL-85-1 cell line, compound A × partner
[7] = CAL-120 cell line, compound A × partner
[8] = CAL-148 cell line, compound A × partner
[9] = CAMA-1 cell line, compound A × partner
[10] = DU-4475 cell line, compound A × partner
[11] = EVSA-T cell line, compound A × partner
[12] = HCC1143 cell line, compound A × partner
[13] = MCF7 cells, Compound A × partner agent
[14] = MDA-MB-175-VII cells, Compound A × partner agent
[15] = MDA-MB-231 cells, Compound A × partner agent
[16] = MDA-MB-361 cells, Compound A × partner agent
[17] = MDA-MB-436 cells, Compound A × partner agent
[18] = MDA-MB-453 cells, Compound A × partner agent
[19] = MDA-MB-468 cells, Compound A × partner agent
[20] = SK-BR-3 cells, Compound A × partner agent
[21] = SUM159PT cells, combination of compound A with the named agent
[22] = T47D cells, combination of compound A with the named agent
[23] = ZR-75-1 cells, combination of compound A with the named agent
[24] = ZR-75-30 cells, combination of compound A with the named agent

What does the source list for CC(=O)O[C@@]12CO[C@@H]1C[C@H](O)[C@@]1(C)C(=O)[C@H](O)C3=C(C)[C@@H](OC(=O)[C@H](O)[C@@H](NC(=O)OC(C)(C)C)c4ccccc4)C[C@@](O)([C@@H](OC(=O)c4ccccc4)[C@H]21)C3(C)C [Docetaxel]?
Bliss Volume [1]: 16.97; HSA volume [1]: 3.68; Loewe Volume [1]: 1.71; Synergy Score [1]: 7.58; Bliss Volume [2]: 27.23; HSA volume [2]: 21.05; Loewe Volume [2]: 19.90; Synergy Score [2]: 39.72; Bliss Volume [3]: 16.39; HSA volume [3]: 9.80; Loewe Volume [3]: 8.62; Synergy Score [3]: 14.51; Bliss Volume [4]: 22.57; HSA volume [4]: 22.13; Loewe Volume [4]: 22.04; Synergy Score [4]: 39.66; Bliss Volume [5]: 2.26; HSA volume [5]: 3.35; Loewe Volume [5]: 3.12; Synergy Score [5]: 4.88; Bliss Volume [6]: 13.68; HSA volume [6]: 11.86; Loewe Volume [6]: 11.10; Synergy Score [6]: 19.64; Bliss Volume [7]: 8.92; HSA volume [7]: 7.98; Loewe Volume [7]: 8.39; Synergy Score [7]: 11.63; Bliss Volume [8]: 15.94; HSA volume [8]: 13.90; Loewe Volume [8]: 12.92; Synergy Score [8]: 28.74; Bliss Volume [9]: 29.57; HSA volume [9]: 6.98; Loewe Volume [9]: 4.88; Synergy Score [9]: 13.30; Bliss Volume [10]: 19.28; HSA volume [10]: 13.68; Loewe Volume [10]: 12.74; Synergy Score [10]: 20.30; Bliss Volume [11]: 32.24; HSA volume [11]: 12.42; Loewe Volume [11]: 12.22; Synergy Score [11]: 24.87; Bliss Volume (HCC38, compound A × partner): 23.64; HSA volume (HCC38, compound A × partner): 16.36; Loewe Volume (HCC38, compound A × partner): 14.95; Synergy Score (HCC38, compound A × partner): 29.56; Bliss Volume (HCC70, compound A × partner): 25.33; HSA volume (HCC70, compound A × partner): 22.90; Loewe Volume (HCC70, compound A × partner): 20.81; Synergy Score (HCC70, compound A × partner): 39.82; Bliss Volume [12]: 11.00; HSA volume [12]: 9.41; Loewe Volume [12]: 8.32; Synergy Score [12]: 18.84; Bliss Volume (HCC1569, compound A × partner): 6.58; HSA volume (HCC1569, compound A × partner): 8.56; Loewe Volume (HCC1569, compound A × partner): 9.52; Synergy Score (HCC1569, compound A × partner): 11.65; Bliss Volume (HCC1806, compound A × partner): 17.46; HSA volume (HCC1806, compound A × partner): 12.45; Loewe Volume (HCC1806, compound A × partner): 12.66; Synergy Score (HCC1806, compound A × partner): 25.50; Bliss Volume (HCC1937, compound A × partner): 10.96; HSA volume (HCC1937, compound A × partner): 11.56; Loewe Volume (HCC1937, compound A × partner): 11.67; Synergy Score (HCC1937, compound A × partner): 11.60; Bliss Volume (HCC1954, compound A × partner): 25.28; HSA volume (HCC1954, compound A × partner): 14.25; Loewe Volume (HCC1954, compound A × partner): 12.73; Synergy Score (HCC1954, compound A × partner): 25.34; Bliss Volume (HCC2218, compound A × partner): 11.69; HSA volume (HCC2218, compound A × partner): 6.53; Loewe Volume (HCC2218, compound A × partner): 5.20; Synergy Score (HCC2218, compound A × partner): 10.71; Bliss Volume (HDQ-P1, compound A × partner): 7.85; HSA volume (HDQ-P1, compound A × partner): 8.96; Loewe Volume (HDQ-P1, compound A × partner): 8.67; Synergy Score (HDQ-P1, compound A × partner): 11.43; Bliss Volume (HMC-1-8, compound A × partner): 31.00; HSA volume (HMC-1-8, compound A × partner): 8.49; Loewe Volume (HMC-1-8, compound A × partner): 7.43; Synergy Score (HMC-1-8, compound A × partner): 16.44; Bliss Volume (JIMT-1, compound A × partner): 4.03; HSA volume (JIMT-1, compound A × partner): 4.64; Loewe Volume (JIMT-1, compound A × partner): 3.81; Synergy Score (JIMT-1, compound A × partner): 6.23; Bliss Volume (KPL-1, compound A × partner): 5.18; HSA volume (KPL-1, compound A × partner): 8.06; Loewe Volume (KPL-1, compound A × partner): 7.67; Synergy Score (KPL-1, compound A × partner): 10.20; Bliss Volume [13]: 14.35; HSA volume [13]: 11.99; Loewe Volume [13]: 11.64; Synergy Score [13]: 17.93; Bliss Volume [14]: 16.97; HSA volume [14]: 10.22; Loewe Volume [14]: 12.14; Synergy Score [14]: 15.31; Bliss Volume [15]: 5.15; HSA volume [15]: 7.49; Loewe Volume [15]: 6.89; Synergy Score [15]: 11.57; Bliss Volume [16]: −0.86; HSA volume [16]: −2.31; Loewe Volume [16]: −3.71; Synergy Score [16]: 4.61; Bliss Volume [17]: 1.49; HSA volume [17]: 1.67; Loewe Volume [17]: 1.48; Bliss Volume [18]: 30.81; HSA volume [18]: 22.87; Loewe Volume [18]: 21.87; Synergy Score [18]: 44.90; Bliss Volume [19]: 28.07; HSA volume [19]: 11.28; Loewe Volume [19]: 10.11; Synergy Score [19]: 20.73; Bliss Volume [20]: 14.70; HSA volume [20]: 4.18; Loewe Volume [20]: 2.95; Synergy Score [20]: 7.33; Bliss Volume [21]: 18.66; HSA volume [21]: 18.88; Loewe Volume [21]: 17.94; Synergy Score [21]: 33.03; Bliss Volume [22]: −1.55; HSA volume [22]: 2.30; Loewe Volume [22]: 1.76; Synergy Score [22]: 6.53; Bliss Volume [23]: 16.15; HSA volume [23]: 16.66; Loewe Volume [23]: 17.29; Synergy Score [23]: 25.42; Bliss Volume [24]: 6.48; HSA volume [24]: 3.70; Loewe Volume [24]: 2.62; Synergy Score [24]: 8.08
